In US20090088482A1, “Compositions and Methods For Treating Heart Failure” (The Trustees Of Columbia University In The City New York, priority 2003, published 2009):

What was measured:
[1] = system: rats with HF induced by LAD ligation; experiment: Ex vivo end-diastolic pressure-volume relationships (EDPVR) (Example 5); assay type: in vivo, Sprague-Dawley rats; conditions: for passive LV Volume at 30 mmHg, normalized for heart weight: ex vivo EDPVR, HF 0.50, Sham 0.36
Experimental: A total of 69 rats were used in this study. LAD ligation surgery was performed in 60 rats, of which 37 (62%) survived three weeks post-surgery. Another 9 rats underwent a sham operation (group Sham), with 7 (78%) survivors. Three weeks post-operatively, echocardiography was performed to establish the baseline level of HF (as measured by fractional shortening). The LAD ligation rats were divided into 4 treatment groups matched for the degree of HF and were randomly assigned to one of the following therapies for 9 additional weeks: (1) rats receiving no therapy (group HF, n=9); (2) rats receiving high-dose clenbuterol at 1 mg/kg/day (group Clen, n=9); (3) rats receiving high-dose metoprolol at 200 mg/kg/day (group Meto, n=9); or (4) rats receiving concurrent high-dose clenbuterol at 1 mg/kg/day and high-dose metoprolol therapy at 200 mg/kg/day (group Clen+Meto, n=10).
An 18-gauge angiocatheter was placed into the LV through the aortic valve and connected to a three-way stopcock. A fine hemostat was placed on the atrial side of the mitral annulus to seal the LV. After eliminating any air from the system, LV pressures were measured using a […] Millar micromanometer introduced through the angiocatheter. While recording LV pressure using an analog-to-digital conversion reading system (Chart 4, version 4.2.4; ADInstruments, Colorado Springs, Colo.), saline was infused into the LV cavity in 50 μL increments using a calibrated 1 mL syringe. The infused fluid was withdrawn and measured to ensure that no leakage had occurred. Data was utilized only if >95% of the injected volume was recovered. Using commercial software (Igor Pro, version 4.0.5.1; WaveMetrics, Lake Oswego, Oreg.), values of LV pressure (P) and volume (V) were fitted according to the equation: […]
where β is the base constant and α is an index of ventricular stiffness, as previously described (Mirsky I. Assessment of passive elastic stiffness of cardiac muscle: mathetical concepts, physiologic and clinical considerations, directions of future research. Prog Cardiovasc Dis. 1976; 18:277-308). […]

[2] = system: rats with chronic heart failure induced by coronary artery ligation; experiment: Ex vivo left ventricular pressure-volume relationship (LVPVR) tracings (Example 2); assay type: in vivo; conditions: 2 mg/kg/day oral, 8 weeks, untreated CHF 1.11
Experimental: (§1) Chronic heart failure was induced by coronary artery ligation in rats, and was confirmed by echocardiography, three weeks post-surgery. Three groups of rats were studied: (1) Chronic heart failure without clenbuterol (n=7); (2) chronic heart failure+clenbuterol (2 mg/kg/day; n=5); and (3) rats after sham operation (n=11). After 8 weeks of oral clenbuterol therapy, echocardiography and direct hemodynamic monitoring were performed. Rat hearts were then harvested for ex vivo left ventricular pressure-volume relationship (LVPVR) tracings, histologic (trichrome) sections, and molecular assays. Western analysis for myocardial calcium-handling proteins (ryanodine receptors (RyR), SERCA2a, phospholamban, and calcium-sodium exchanger) was assessed by densitometry.

[3] = ten of 15 LVAD patients; with ACE inhibition, β-1 selective blockade, spironolactone; cited from earlier work
SERCA2a = experiment: Western analysis of myocardial calcium-handling proteins by densitometry: SERCA2a (Example 2); assay type: in vivo, rats; conditions: 2 mg/kg/day oral, 8 weeks, untreated CHF 1.7±0.5, Sham 2.2±0.4
Experimental: as §1

[4] = system: ryanodine receptors (RyR); experiment: Western analysis of myocardial calcium-handling proteins by densitometry: RyR (Example 2); assay type: in vivo, rats; conditions: 2 mg/kg/day oral, 8 weeks, untreated CHF 1.6±0.4, Sham 2.8±0.8
Experimental: as §1

ryanodine receptor (RyR) = experiment: Western blot of calcium-handling protein expression: RyR (Example 5); assay type: in vivo, Sprague-Dawley rats; conditions: FIG. 6; not different from Sham
Experimental: (§2) Five rat hearts from each group (HF, Clen, Meto, Clen+Meto, and Sham) were randomly selected and used for analysis of calcium-handling protein expression levels. Lysates of LV tissue were obtained with the use of a homogenizer (Brinkmann Instruments, Westbury, N.Y.). Approximately 150 mg of heart tissue was placed in a seven-fold volume of lysis buffer (20 mM/L Na-HEPES, 4 mM/L EGTA, 1 mM/L DTT, pH 7.4) in the presence of proteinase inhibitors (0.1 mM/L leupeptin and 0.3 mM/L PMSF). The protein concentration was determined using a protein assay kit (Bio-Rad Laboratories, Hercules, Calif.). Samples (50 μg) were denatured at 95° C. and size-fractionated using SDS-polyacrylamide gel electrophoresis (PAGE) under reducing conditions. SDS-PAGE was performed using 7.5% separating and 5% stacking gels for SERCA2a and 5% separating and 4% stacking gels for RyR. Electrophoresis was performed in a Miniprotean II cell (Bio-Rad Laboratories, Hercules, Calif.) followed by transfer of proteins (using 34 V overnight at 4° C.) onto nitrocellulose in a mini trans-blot transfer cell (Bio-Rad Laboratories, Hercules, Calif.) filled with transfer buffer (25 m/L Tris-HCl, pH 8.3, 192 mM/L glycine and 20% methanol). […]
(§3) Optical densities of protein level signals were quantified with the use of a laser scanning densitometer (Molecular Dynamics, Palo Alto, Calif.) in a blinded manner. […]

[5] = system: sarcoplasmic reticulum calcium-ATPase (SERCA2a); experiment: Western blot of calcium-handling protein expression: SERCA2a (Example 5); assay type: in vivo, Sprague-Dawley rats; conditions: FIG. 6; not different from Sham
Experimental: as §2, §3

Compound | passive LV Volume at 30 mmHg, normalized for heart weight [1] | LVPVR volume for a given LV pressure=15 mmHg [2] [mL] | rate of myocardial recovery (LVAD explantation for recovery) [3] [%] | Protein level of SERCA2a (SERCA2a) | Protein level of RyR [4] | RyR protein expression level relative to tubulin, versus HF group (ryanodine receptor (RyR)) | SERCA2a protein expression level relative to tubulin, versus HF group [5] | shift of EDPVR curve versus Sham rats ([1]; ex vivo, normalized for heart weight)
CC(C)(C)NCC(O)c1cc(Cl)c(N)c(Cl)c1 (stereo not drawn) [Clen, clenbuterol] | 0.42 mL/gm of heart weight | 1.02 | 67 | 2.0±0.2 | 2.2±0.7 | significantly improved | significantly improved | 
COCCc1ccc(OCC(O)CNC(C)C)cc1 (stereo not drawn) [Meto, metoprolol] | 0.51 mL/gm of heart weight |  |  |  |  |  |  | rightward shift
